Here are results for two compounds from patent US20120302609A1, “Pyrazolines for the Modulation of PKM2” (Dynamix Pharmaceuticals LTD., priority 2011, published 2012).

In series [1] the test system is HT-29 cells (a colorectal cancer cell line). The series can be described thus: Combination with 5-FU on HT-29 cells. The note with it: FIG. 5. The format is cell-based, human.
Series [2] deals with H1299 (Non-small cell lung carcinoma cell line). The series can be described thus: Cell proliferation index assay, Assay Protocol II (Fluofarma, flow cytometry). The format is cell-based. The note with it: Homo sapiens, NCI-H1299. The protocol: In a second assay to determine the inhibition of cell proliferation by a test compound, cell proliferation of the cell line of interest was measured by a cell proliferation index assay using Fluofarma (www.fluofarma.com) based technology. This assay is based on the dilution rate of a fluorescent membrane marker, which is a direct function of the number of cell divisions. Briefly, the assay is performed by loading the cells with a non-toxic fluorescent phospholipid analog before the seeding. […] Flow cytometry analysis of the fluorescent probe is performed after the loading of the cells both prior to, as well as after treatment with various concentrations of the test compound. The dilution rate of the fluorescent probe at the single cell level is directly correlated to the number of cell divisions.
Background: A flow cytometer gives signals particle by particle.

The test system of another series is 786-O (kidney). Nature of the series: Cell proliferation assay (CellTiter-Glo Luminescent). The format is cell-based. The following applies: Homo sapiens, 786-0, 1 mM glucose, 96 hr. (In general: In ATP-based viability assays light output follows the ATP content of the culture.)
The subject of the next series is HepG2 (liver). The series can be described thus: Cell proliferation assay (XTT). The format is cell-based. The note with it: Homo sapiens, Complete media, Assay duration: 72 hours, Readout: XTT. From the text:
(§1) The assay is based on the ability of metabolic active cells to reduce the tetrazolium salt XTT to orange colored compounds of formazan. The dye formed is water soluble and the dye intensity can be read at a given wavelength with a spectrophotometer. The intensity of the dye is proportional to the number of metabolic active cells. The use of multiwell plates and an ELISA reader enables testing a large number of samples and obtaining easy and rapid results. The test procedure includes cultivation of cells in a 96-well plate, adding the XTT reagent and incubation for 2-24 hours. During incubation an orange color is formed, the intensity of which can be measured with a spectrophotometer, in this instance with an ELISA reader. The greater the number of active cells in the well, the greater the activity of mitochondria enzymes, and the higher the concentration of the dye formed, which can then be measured and quantitated.
• 1. […] The absorbance of the samples was measured against a background control as a blank (see 7) with a spectrophotometer (ELISA reader) at a wavelength of 450-500 nanometer. In order to measure reference absorbance (to measure non-specific readings), a wavelength of 630-690 nanometer was used and subtracted from the 450-500 nanometer measurement. • 7. […] This background absorbance depends on the culture medium, pH, incubation time and length of exposure to light. […]
Background: Tetrazolium assays rely on reduction of a dye to a coloured formazan, in cell work by metabolically active cells.

The test system of another series is H-460 (lung). Nature of the series: Cell proliferation assay (XTT). The following applies: Homo sapiens, NCI-H460, 72 h, Assay duration: 72 hours, Readout: XTT. The format is cell-based. How it is done:
(§2) Day 0 Cells were seeded at 3000 cells/well in 100 μl full media in 96-well culture plates (60 wells/plate, external wells filled with 100 μl PBS) and incubated overnight. • Day 1 On the following day, full media was changed to the tested media and compounds were added in 0.5% DMSO final. • Day 2-5 Cells were incubated over 72 hr. • Day 5 Cell proliferation was assessed using XTT proliferation assay as follows:
as §1
• 1. […] The absorbance of the samples was measured against a background control as a blank (see 7) with a spectrophotometer (ELISA reader) at a wavelength of 450-500 nanometer. In order to measure reference absorbance (to measure non-specific readings), a wavelength of 630-690 nanometer was used and subtracted from the 450-500 nanometer measurement. • 7. Background control (blank): Slight spontaneous absorbance around 450-500 nanometer occurs in the culture medium incubated with the XTT reagent. This background absorbance depends on the culture medium, pH, incubation time and length of exposure to light. […] The average absorbance of the blank control wells was subtracted from that of the other wells. […]

The target of a further series is PKM1 (Homo sapiens, UniProt P14618). The series can be described thus: Isoform selectivity of pyruvate kinases. The format is biochemical.
Chain of PKM1 (P14618 1-531 isoform P14618-2): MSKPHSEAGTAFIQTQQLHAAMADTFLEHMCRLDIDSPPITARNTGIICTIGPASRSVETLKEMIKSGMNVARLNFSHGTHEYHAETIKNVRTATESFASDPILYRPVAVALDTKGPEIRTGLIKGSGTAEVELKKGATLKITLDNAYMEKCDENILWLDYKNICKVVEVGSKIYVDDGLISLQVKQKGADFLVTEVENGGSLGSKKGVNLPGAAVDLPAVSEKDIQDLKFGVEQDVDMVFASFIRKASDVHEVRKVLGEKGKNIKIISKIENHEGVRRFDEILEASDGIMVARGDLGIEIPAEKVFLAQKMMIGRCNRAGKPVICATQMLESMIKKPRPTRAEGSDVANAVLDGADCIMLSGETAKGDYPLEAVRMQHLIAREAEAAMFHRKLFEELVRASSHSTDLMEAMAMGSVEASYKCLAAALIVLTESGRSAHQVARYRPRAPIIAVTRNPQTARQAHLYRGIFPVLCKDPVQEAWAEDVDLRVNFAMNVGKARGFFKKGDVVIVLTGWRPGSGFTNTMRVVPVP
In another series the target is PKL (Homo sapiens, UniProt P30613). Nature of the series: Isoform selectivity of pyruvate kinases. The format is biochemical.
Chain of PKL (P30613 1-543 isoform P30613-2): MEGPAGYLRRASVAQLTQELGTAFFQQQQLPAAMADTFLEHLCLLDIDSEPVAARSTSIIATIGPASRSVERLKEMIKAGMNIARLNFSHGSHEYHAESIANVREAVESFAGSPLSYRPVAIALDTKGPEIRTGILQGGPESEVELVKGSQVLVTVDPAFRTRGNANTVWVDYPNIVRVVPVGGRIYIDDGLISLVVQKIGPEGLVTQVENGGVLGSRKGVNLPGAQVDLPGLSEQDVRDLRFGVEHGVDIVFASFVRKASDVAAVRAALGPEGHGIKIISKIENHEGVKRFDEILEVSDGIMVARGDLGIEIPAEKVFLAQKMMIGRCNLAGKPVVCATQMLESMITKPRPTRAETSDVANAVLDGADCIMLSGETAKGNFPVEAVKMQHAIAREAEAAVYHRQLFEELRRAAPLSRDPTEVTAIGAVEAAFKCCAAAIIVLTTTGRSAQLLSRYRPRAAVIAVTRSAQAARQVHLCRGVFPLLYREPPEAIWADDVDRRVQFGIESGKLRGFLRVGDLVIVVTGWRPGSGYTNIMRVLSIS
The test system of a further series is HT-29 (colon). The series can be described thus: Cell proliferation assay (XTT or CellTiter-Glo). The following applies: Homo sapiens. The format is cell-based. The protocol: as §2
as §1, with “The intensity of the dye is proportional to the number of metabolic active cells.” left out, “The test procedure includes cultivation of cells in a 96-well plate, adding the XTT reagent and incubation for 2-24 hours.” left out
• 1. […] The absorbance of the samples was measured against a background control as a blank (see 7) with a spectrophotometer (ELISA reader) at a wavelength of 450-500 nanometer. […] The average absorbance of the blank control wells was subtracted from that of the other wells. […]

The test system of another series is H1299 cells. The series can be described thus: Cell cycle analysis. The note with it: 48 hours, FIG. 6. The format is cell-based, human.

A word on the IC50: it is the midpoint of a concentration-inhibition curve. High values mean weaker potency, low ones greater potency. As a reminder, the AC50 is the midpoint of the concentration-response curve, whichever way the signal moves. A low value points to greater potency.

Consider `CCS(=O)(=O)Nc1ccc(C2=NN(C(C)=O)C(c3ccc(OC)cc3)C2)cc1` (racemic) [Compound 1A, N-(4-(1-acetyl-5-(4-methoxyphenyl)-4,5-dihydro-1H-pyrazol-3-yl)phenyl)ethanesulfonamide], for which the “effect in combination with 5-FU” value in series [1] is reported as “at least additive”. The half-maximal inhibitory concentration (IC50) in series [2] lay in the range of 40 to 100 µM.
Take `COc1ccc([C@@H]2CC(c3ccc(NS(=O)(=O)c4ccc(F)cc4)cc3)=NN2C(C)=O)cc1` [Compound 13A, (S)—N-(4-(1-acetyl-5-(4-methoxyphenyl)-4,5-dihydro-1H-pyrazol-3-yl)phenyl)-4-fluorobenzenesulfonamide]: the AC50 with 786-O (kidney) is under 3 µM; with HepG2 (liver), over 20 µM; in the series with H-460 (lung) (1 mM glucose), 10 to 20 µM; in the series with H-460 (lung) (Complete media), over 20 µM; in the series on H-460 (lung) (Lipoprotein-free media) it was under 3 µM; at PKM1, “Not active”. In addition, the AC50 at PKL was over 11 µM; with HT-29 (colon) (1 mM glucose, Assay duration: 72 hours, Readout: XTT), 3 to 10 µM; in the series on HT-29 (colon) (Complete media, 96 hr, CellTiter-Glo) it was 10 to 20 µM. Besides, the cell cycle analysis entry with H1299 cells is on record as “most cells were arrested at the G1/S phase”.
